As usually defined, the Ki is a measure of affinity in units of concentration, obtained from inhibition or displacement.

Consider 55 molecules from patent US5480892A, “(N-phthalimidoalkyl)piperidines” (The Du Pont Merck Pharmaceutical Company, priority 1994, dated 1996).

Read-outs that look alike come from different tables or passages of the source.

The target in one assay is T1, Sigma receptor (Cavia porcellus, UniProt Q60492).
T1 construct: Brain membranes were prepared by the method of Tam; from tissue; host or cells: guinea pig whole brain membranes
T1 sequence (Q60492 whole entry): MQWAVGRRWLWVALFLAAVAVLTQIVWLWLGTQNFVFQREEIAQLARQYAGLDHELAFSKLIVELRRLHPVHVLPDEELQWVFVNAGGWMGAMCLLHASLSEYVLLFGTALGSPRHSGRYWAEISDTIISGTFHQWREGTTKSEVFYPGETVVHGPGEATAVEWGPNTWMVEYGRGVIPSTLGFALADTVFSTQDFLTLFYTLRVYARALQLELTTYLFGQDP
The experiment in a line: Sigma Receptor Binding Assay. Particulars: 1 nM (+)-[3H]SKF 10,047, guinea pig brain membranes, pH 7.4, 45 min room temperature; read-out: Receptor Binding Affinity Sigma (Ki class). Format: guinea pig (male Hartley), brain membranes.

The next assay has as its target T2, Dopamine (D-2) receptor (Cavia porcellus, UniProt H0VE83).
T2 construct: Membranes were prepared from guinea pig striatum; from tissue; host or cells: guinea pig striatum membranes
The experiment in a line: Dopamine Receptor Binding. Format: guinea pig, striatum membranes.

Setting [1] is: 0.15 nM [3H]spiperone, guinea pig striatum, pH 7.7, 15 min 37° C., read-out: Receptor Binding Affinity Dopamine (D-2) (Ki class).

T2 sequence (H0VE83 1-446): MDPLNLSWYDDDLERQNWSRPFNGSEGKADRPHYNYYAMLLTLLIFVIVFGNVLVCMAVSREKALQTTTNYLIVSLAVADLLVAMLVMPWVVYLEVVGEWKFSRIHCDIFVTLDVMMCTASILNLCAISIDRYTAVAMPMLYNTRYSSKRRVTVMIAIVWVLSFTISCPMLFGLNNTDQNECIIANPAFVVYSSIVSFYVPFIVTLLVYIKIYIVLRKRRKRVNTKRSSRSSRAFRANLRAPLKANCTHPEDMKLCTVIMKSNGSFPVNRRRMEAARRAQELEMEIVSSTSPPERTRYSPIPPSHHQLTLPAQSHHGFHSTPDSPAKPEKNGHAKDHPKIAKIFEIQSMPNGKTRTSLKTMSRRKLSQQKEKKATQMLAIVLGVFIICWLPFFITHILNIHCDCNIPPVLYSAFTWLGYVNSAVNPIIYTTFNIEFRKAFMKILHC
Description for Dopamine (D-2) receptor: Membranes were prepared from guinea pig striatum by the method described for sigma receptor binding. The membranes were then resuspended in 50 mM Tris HCl (9 mL per brain).
Nonspecific binding was measured in the presence of 100 nM (+)-butaclamol After 15 min of incubation at 37° C. samples were filtered rapidly through Whatman GF/C glass filters under negative pressure, and washed three times with ice-cold binding buffer (5 mL).
Description for Sigma receptor: Male Hartley guinea pigs (250-300 g, Charles River) were sacrificed by decapitation. […] Whole brains were homogenized (20 sec.) in 10 vol (wt/vol) of ice-cold 0.34 M sucrose with a Brinkmann Polytron (setting 8). The homogenate was centrifuged at 920×g for 10 min. The supernatant was centrifuged at 47,000×g for 20 min. The resulting membrane pellet was resuspended in 10 vol (original wt/vol) of 50 mM Tris HCl (pH 7.4) and incubated at 37° C. for 45 min to degrade and dissociate bound endogenous ligands. The membranes were then centrifuged at 47,000×g for 20 min and resuspended in 50 mM Tris HCl (50 mL per brain).
After 45 rain of incubation at room temperature, samples were filtered rapidly through Whatman GF/C glass filters under negative pressure, and washed 3 times with ice-cold Tris buffer (5 mL).
IC50 s were calculated from log-logit plots. Apparent Ki s were calculated from the equation, Ki =IC50 /[1+(L/Kd)], where L is the concentration of radioligand and Kd is its dissociation constant.

Regarding `O=C1[C@@H]2CCCC[C@H]2C(=O)N1CC1CCN(CCc2ccccc2)CC1` (relative stereo) [Example 22], the Ki at Sigma receptor is 0.031 to 0.1 µM; at Dopamine (D-2) receptor (setting [1]), greater than 0.5 µM.
The like results for `O=C1[C@H]2CC=CC[C@H]2C(=O)N1CC1CCN(CCc2ccccc2)CC1` [Example 1, 2-[1-(2-Phenylethyl)-4-piperidinylmethyl]-cis-3a; 4,7,7a-tetrahydro-1H-isoindole-1,3(2H)-dione] were, in that order, 0.031 to 0.1 µM and greater than 0.5 µM.
The corresponding values for `O=C1c2ccccc2C(=O)N1CC1CCN(CCc2ccccc2)CC1` [Example 2, 2-[1-(2-Phenylethyl)-4-piperidinylmethyl]-1H-isoindole-1,3(2H)-dione] are 0.031 to 0.1 µM and greater than 0.5 µM.
The corresponding values for `O=C1c2ccccc2C(=O)N1CCCC1CCCN(Cc2ccccc2)C1` (stereo not shown) [Example 4, 2-[3-[1-(phenylmethyl)-3-piperidinyl]propyl]-1H-isoindole-1,3(2H)-dione] are 0.001 to 0.03 µM and greater than 0.5 µM.
In the case of `O=C1C2CCCCC2C(O)N1CC1CCN(CCc2ccccc2)CC1` (stereo not drawn) [Example 5, cis-Octahydro-3-hydroxy-2-[[1-(2-phenylethyl)-4-piperidinyl]methyl]-1H-isoindol-1-one], the figures for the Ki on Sigma receptor and at Dopamine (D-2) receptor (setting [1]) were 0.101 to 0.5 µM and greater than 0.5 µM, respectively.
For `O=C1c2ccccc2C(O)N1CC1CCN(CCc2ccccc2)CC1` (stereo not shown) [Example 7, 2,3-Dihydro-3-hydroxy-2-[[1-(2-phenylethyl]-4-piperidinyl]methyl]-1H-isoindol-1-one], the results for the inhibition constant Ki at Sigma receptor and at Dopamine (D-2) receptor (setting [1]) were 0.101 to 0.5 µM and greater than 0.5 µM, respectively.
The corresponding values for `CC1(O)C2CCCCC2C(=O)N1CC1CCN(CCc2ccccc2)CC1` (stereo not drawn) [Example 8, cis-Octahydro-3-hydroxy-3-methyl-2-[[1-(2-phenylethyl)4-piperidinyl]methyl]-1H-isoindol-1-one] are 0.101 to 0.5 µM and greater than 0.5 µM.
`O=C1c2cccc3cccc(c23)C(=O)N1CCC1CCN(CCc2ccccc2)CC1` [Example 9]: the Ki was 0.001 to 0.03 µM at Sigma receptor and 0.101 to 0.5 µM on Dopamine (D-2) receptor (setting [1]).
Turning to `O=C1C2C3C=CC(C4CCC34)C2C(=O)N1CC1CCN(CCc2c[nH]c3ccccc23)CC1` (stereo not shown) [Example 10], the Ki at Sigma receptor lay within 0.001 to 0.03 µM; at Dopamine (D-2) receptor (setting [1]), 0.031 to 0.1 µM.
Consider `O=C1[C@H]2CCCC[C@H]2C(=O)N1C1CCN(Cc2ccccc2)CC1` [Example 12], for which the inhibitory constant (Ki) at Sigma receptor is 0.001 to 0.03 µM; at Dopamine (D-2) receptor (setting [1]), greater than 0.5 µM.
Turning to `O=C1[C@H]2CCCC[C@H]2C(=O)N1C1CCN(CCc2ccccc2)CC1` [Example 13], the values for the inhibitory constant (Ki) at Sigma receptor and on Dopamine (D-2) receptor (setting [1]) were 0.031 to 0.1 µM and greater than 0.5 µM, respectively.
The corresponding values for `O=C1[C@H]2CCCC[C@H]2C(=O)N1CC1CCN(Cc2ccccc2)CC1` [Example 14] are 0.001 to 0.03 µM and greater than 0.5 µM.
The like results for `O=C1[C@H]2CCCC[C@H]2C(=O)N1CC1CCN(CCCc2ccccc2)CC1` [Example 16] were, in that order, 0.031 to 0.1 µM and greater than 0.5 µM.
The corresponding values for `O=C1[C@H]2CCCC[C@H]2C(=O)N1CC1CCN(Cc2cccc(C(F)(F)F)c2)CC1` [Example 18] are 0.031 to 0.1 µM and greater than 0.5 µM.
Consider `O=C1[C@H]2CCCC[C@H]2C(=O)N1CC1CCN(CCc2ccc(O)cc2)CC1` [Example 19], for which the inhibition constant Ki on Sigma receptor and at Dopamine (D-2) receptor (setting [1]) was 0.101 to 0.5 µM each time.
Consider `O=C1[C@H]2CCCC[C@H]2C(=O)N1CC1CCN(Cc2ccc(F)cc2)CC1` [Example 20], for which the Ki was 0.001 to 0.03 µM at Sigma receptor and greater than 0.5 µM at Dopamine (D-2) receptor (setting [1]).
The corresponding values for `O=C1[C@H]2CCCC[C@H]2C(=O)N1CC1CCN(CC2CC2)CC1` [Example 21] are 0.101 to 0.5 µM and greater than 0.5 µM.
Regarding `O=C1[C@H]2CCCC[C@H]2C(=O)N1CCC1CCN(CCc2ccccc2)CC1` [Example 24], the inhibition constant (Ki) is 0.001 to 0.03 µM on Sigma receptor and greater than 0.5 µM on Dopamine (D-2) receptor (setting [1]).
The corresponding values for `O=C1[C@H]2CCCC[C@H]2C(=O)N1CC1CCN(CCc2ccc(Cl)cc2)CC1` [Example 26] are 0.001 to 0.03 µM and greater than 0.5 µM.
With `O=C1[C@H]2CCCC[C@H]2C(=O)N1CC1CCN(CCc2ccc([N+](=O)[O-])cc2)CC1` [Example 27], the inhibition constant (Ki) at Sigma receptor is 0.001 to 0.03 µM; on Dopamine (D-2) receptor (setting [1]), greater than 0.5 µM.
With `CN(C)c1ccc(CCN2CCC(CN3C(=O)[C@H]4CCCC[C@H]4C3=O)CC2)cc1` [Example 28], the Ki was 0.001 to 0.03 µM at Sigma receptor and greater than 0.5 µM at Dopamine (D-2) receptor (setting [1]).
As to `O=C1[C@H]2CCCC[C@H]2C(=O)N1CC1CCN(CCc2ccc(F)cc2)CC1` [Example 29], the Ki was 0.031 to 0.1 µM on Sigma receptor and greater than 0.5 µM at Dopamine (D-2) receptor (setting [1]).
In the case of `O=C1[C@H]2CCCC[C@H]2C(=O)N1CC1CCN(CCc2ccc(Br)cc2)CC1` [Example 30], the Ki was in the range of 0.001 to 0.03 µM at Sigma receptor and 0.101 to 0.5 µM at Dopamine (D-2) receptor (setting [1]).
The like results for `O=C1[C@H]2CCCC[C@H]2C(=O)N1CC1CCN(CCc2ccc(C(F)(F)F)cc2)CC1` [Example 31] were, in that order, 0.101 to 0.5 µM and greater than 0.5 µM.
Turning to `O=C1[C@H]2CCCC[C@H]2C(=O)N1CC1CCN(CCc2c[nH]c3ccccc23)CC1` [Example 32], the Ki at Sigma receptor was 0.101 to 0.5 µM; on Dopamine (D-2) receptor, greater than 0.5 µM.
For the molecule `O=C1[C@H]2CCCC[C@H]2C(=O)N1CCCC1CCN(CCc2ccccc2)CC1` [Example 33], the figures for the inhibitory constant (Ki) on Sigma receptor and on Dopamine (D-2) receptor (setting [1]) were 0.001 to 0.03 µM and greater than 0.5 µM, respectively.
Consider `O=C1c2ccccc2C(=O)N1CC1CCN(Cc2cccc(F)c2)CC1` [Example 35], for which the inhibition constant Ki was 0.031 to 0.1 µM at Sigma receptor and greater than 0.5 µM at Dopamine (D-2) receptor (setting [1]).
The like results for `O=C1c2ccccc2C(=O)N1CC1CCN(Cc2ccc(F)cc2)CC1` [Example 36] were, in that order, 0.001 to 0.03 µM and greater than 0.5 µM.
The like results for `O=C1c2ccccc2C(=O)N1CC1CCN(CC2CC2)CC1` [Example 37] were, in that order, 0.101 to 0.5 µM and greater than 0.5 µM.
`O=C1c2ccccc2C(=O)N1CCC1CCN(Cc2ccccc2)CC1` [Example 38]: the Ki was 0.001 to 0.03 µM at Sigma receptor and greater than 0.5 µM on Dopamine (D-2) receptor (setting [1]).
The like results for `O=C1c2ccccc2C(=O)N1CCC1CCN(Cc2cccc(F)c2)CC1` [Example 40] were, in that order, 0.001 to 0.03 µM and greater than 0.5 µM.
The corresponding values for `O=C1c2ccccc2C(=O)N1CCC1CCN(Cc2ccc(F)cc2)CC1` [Example 41] are 0.001 to 0.03 µM and greater than 0.5 µM.
For `O=C1c2ccccc2C(=O)N1CCC1CCN(CC2CC2)CC1` [Example 42], the Ki is 0.001 to 0.03 µM at Sigma receptor and greater than 0.5 µM at Dopamine (D-2) receptor (setting [1]).
On to `O=C1c2ccccc2C(=O)N1CCCC1CCN(Cc2ccccc2)CC1` [Example 43], for which the Ki is 0.001 to 0.03 µM at Sigma receptor and greater than 0.5 µM on Dopamine (D-2) receptor (setting [1]).
With `O=C1c2ccccc2C(=O)N1CCCC1CCN(CCc2ccccc2)CC1` [Example 44], the values for the Ki at Sigma receptor and on Dopamine (D-2) receptor (setting [1]) were 0.001 to 0.03 µM and greater than 0.5 µM, respectively.
The like results for `O=C1c2ccccc2C(=O)N1CC1CCCN(Cc2ccccc2)C1` (stereo not shown) [Example 47] were, in that order, 0.001 to 0.03 µM and greater than 0.5 µM.
The like results for `O=C1c2ccccc2C(=O)N1CC1CCCN(CCc2ccccc2)C1` (stereo not shown) [Example 48] were, in that order, 0.001 to 0.03 µM and greater than 0.5 µM.
`O=C1c2ccccc2C(=O)N1CCCC1CCCN(CCc2ccccc2)C1` (stereo not shown) [Example 49]: the inhibitory constant (Ki) on Sigma receptor was 0.001 to 0.03 µM; on Dopamine (D-2) receptor (setting [1]) it was greater than 0.5 µM.
Regarding `O=C1c2ccccc2C(=O)N1CCC1CCCCN1Cc1ccccc1` (stereo not shown) [Example 50], the Ki on Sigma receptor was 0.031 to 0.1 µM; at Dopamine (D-2) receptor (setting [1]) it was greater than 0.5 µM.
The like results for `O=C1C2CC=CCC2C(=O)N1CC1CCN(CCc2ccccc2)CC1` (stereo not shown) [Example 52] were, in that order, 0.001 to 0.03 µM and greater than 0.5 µM.
Regarding `O=C1C2C3CCC(C3)C2CN1CC1CCN(CCc2ccccc2)CC1` (stereo not shown) [Example 54], the Ki at Sigma receptor was 0.031 to 0.1 µM; at Dopamine (D-2) receptor (setting [1]), greater than 0.5 µM.
The like results for `O=C1C2C3C=CC(C3)C2C(=O)N1CC1CCN(CCc2ccccc2)CC1` (stereo not shown) [Example 55] were, in that order, 0.031 to 0.1 µM and greater than 0.5 µM.
For the molecule `O=C1C2=C(CCCC2)C(=O)N1CC1CCN(CCc2ccccc2)CC1` [Example 56], the figures for the Ki on Sigma receptor and on Dopamine (D-2) receptor (setting [1]) were 0.001 to 0.03 µM and greater than 0.5 µM, respectively.
The like results for `O=C1C2C3CC(c4ccccc43)C2C(=O)N1CC1CCN(CCc2ccccc2)CC1` (stereo not shown) [Example 57] were, in that order, 0.001 to 0.03 µM and greater than 0.5 µM.
Turning to `O=C1C2C3CCC(O3)C2C(=O)N1CC1CCN(CCc2ccccc2)CC1` (stereo not shown) [Example 58], the inhibition constant (Ki) on Sigma receptor is 0.001 to 0.03 µM; on Dopamine (D-2) receptor (setting [1]) it was greater than 0.5 µM.
The corresponding values for `O=C1C2C3C=CC(C4CCC34)C2C(=O)N1CC1CCN(CCc2ccccc2)CC1` (stereo not shown) [Example 59] are 0.031 to 0.1 µM and greater than 0.5 µM.
For the molecule `O=C1C2C3CCCC(CC3)C2C(=O)N1CC1CCN(CCc2ccccc2)CC1` (stereo not shown) [Example 61], the Ki at Sigma receptor was 0.001 to 0.03 µM; on Dopamine (D-2) receptor (setting [1]), greater than 0.5 µM.
The corresponding values for `O=C1C2C3C=CC(CCC3)C2C(=O)N1CC1CCN(CCc2ccccc2)CC1` (stereo not shown) [Example 62] are 0.001 to 0.03 µM and greater than 0.5 µM.
The like results for `O=C1C2CC(O)C(O)CC2C(=O)N1CC1CCN(CCc2ccccc2)CC1` (stereo not shown) [Example 63] were, in that order, greater than 0.5 µM and greater than 0.5 µM.
The like results for `CC12CCCCC1C(=O)N(CC1CCN(CCc3ccccc3)CC1)C2=O` (stereo not shown) [Example 64] were, in that order, 0.031 to 0.1 µM and greater than 0.5 µM.
On to `CC12CCCCC1(C)C(=O)N(CC1CCN(CCc3ccccc3)CC1)C2=O` (stereo not shown) [Example 65], for which the Ki is 0.031 to 0.1 µM on Sigma receptor and 0.101 to 0.5 µM at Dopamine (D-2) receptor (setting [1]).
The corresponding values for `CC12CC=CCC1(C)C(=O)N(CC1CCN(CCc3ccccc3)CC1)C2=O` (stereo not shown) [Example 66] are 0.031 to 0.1 µM and greater than 0.5 µM.
The corresponding values for `CC12CC=CCC1C(=O)N(CC1CCN(CCc3ccccc3)CC1)C2=O` (stereo not shown) [Example 67] are 0.101 to 0.5 µM and greater than 0.5 µM.
Take `O=C1C2C(c3ccccc3)CCC(c3ccccc3)C2C(=O)N1CC1CCN(CCc2ccccc2)CC1` (stereo not shown) [Example 68]: the Ki on Sigma receptor is 0.101 to 0.5 µM; on Dopamine (D-2) receptor (setting [1]) it was greater than 0.5 µM.
With `O=C1C2C3C=CC(C4CCC34)C2C(=O)N1CC1CCN(CCc2ccccc2)CC1` (stereo not shown) [Example 113], on Sigma receptor, the inhibitory constant (Ki) fell in the range of 0.031 to 0.1 µM.
